{"source": "PubChem BioAssay AID1996"}
{"details": "buffer; pH 7.4; 200.0 µM", "units": {"solubility kinetic": "µg/mL"}}
{"smiles": "COc1ccccc1NC(=O)Nc1ccncc1", "solubility kinetic": 16.5}
{"smiles": "CC(C)c1ccc(NC(=O)Cn2c(=O)oc3cccnc32)cc1", "solubility kinetic": 7.7}
{"smiles": "O=S(=O)(NCC1CC1)c1cc(Cl)cc(Cl)c1", "solubility kinetic": 10.2}
{"smiles": "CCOc1ccc(C2NC(=O)NC(C)=C2[N+](=O)[O-])cc1OC", "note": "(centres undefined)", "solubility kinetic": 45.5}
{"smiles": "Cc1cc(C)cc(NC(=O)CNC(c2ccccc2)c2ccccc2)c1", "solubility kinetic": 1.1}
{"smiles": "COc1cc(NC(=O)C(Cc2ccccc2)n2cccc2)cc(OC)c1", "note": "(centres undefined)", "solubility kinetic": 16.3}
{"smiles": "O=C(NCc1ccc2c(c1)CCO2)Nc1cccc(C(F)(F)F)c1", "solubility kinetic": 1}
{"smiles": "CCOc1ccc2[nH]c3c(NCCC(C)C)ncnc3c2c1", "solubility kinetic": 0.6}
{"smiles": "Cl.OCCNCCNCc1ccccc1OCc1ccccc1", "solubility kinetic": "> 50.5"}
{"smiles": "Cc1cc(/C=C2/C(=O)NC(=O)N(c3ccc(Br)cc3)C2=O)c(C)n1C", "solubility kinetic": 5.3}
{"smiles": "Cc1cc(C)c2oc(C(=O)NCc3ccccc3)cc(=O)c2c1", "solubility kinetic": 2.3}
{"smiles": "CCOC(=O)c1ncccc1NC(=O)CC(=O)Nc1cccnc1C(=O)OCC", "solubility kinetic": 58.2}
{"smiles": "CCN=C(NCC)SC1CC(=O)N(CCc2ccccc2)C1=O", "note": "(centres undefined)", "solubility kinetic": 36.3}
{"smiles": "O=[N+]([O-])c1ccccc1S(=O)(=O)Nc1ncccn1", "solubility kinetic": "> 42"}
{"smiles": "Cc1nc(N2CCOCC2)nc(Oc2ccccc2)c1[N+](=O)[O-]", "solubility kinetic": 5.8}
{"smiles": "COC(=O)C1=C(C(=O)OC)SC(=C2C(=S)C(C)(C)N(C(=O)C3CC3)c3ccccc32)S1", "solubility kinetic": 11.2}
{"smiles": "COc1cc(OC)c(OC)cc1CN1CCSCC1", "solubility kinetic": 32.3}
{"smiles": "COc1ccc(OC)c(NC(=O)CC2Oc3ccccc3NC2=O)c1", "note": "(centres undefined)", "solubility kinetic": 6.4}
{"smiles": "CCCN1CCN(C(=S)Nc2sc(CC)cc2C(=O)OC)CC1", "solubility kinetic": 0.6}
{"smiles": "CCCN(CCC)S(=O)(=O)c1cc2c3c(c1)CCN3C(=O)CC2", "solubility kinetic": "> 50.5"}
{"smiles": "O=C(O)C(=O)O.OC(CN1CCCC1)Cn1ccc2ccccc21", "note": "(centres undefined)", "solubility kinetic": "> 50.2"}
{"smiles": "CCOc1cc(/C=C/C(=O)OCC(=O)NCC2CCCO2)cc(Cl)c1OC", "note": "(centres undefined)", "solubility kinetic": 52.7}
{"smiles": "Cc1nc(/C(N)=N/OC(=O)c2ccc(Cl)cc2)c(C(F)(F)F)o1", "solubility kinetic": 17}
{"smiles": "O=C(CSc1ncnc2c1oc1ccccc12)NC1CCCC1", "solubility kinetic": 3.4}
{"smiles": "NC(=O)c1ccc(NC(=O)CN2C(=O)NC3(CCCCCCC3)C2=O)cc1", "solubility kinetic": "> 55.9"}
{"smiles": "CN(C)c1ccc(NC(=O)CN2C(=O)c3ccccc3C2=O)cc1", "solubility kinetic": 11.3}
{"smiles": "Nc1ccc(-n2cc(-c3ccccc3)[nH]c2=S)cc1", "solubility kinetic": 12.6}
{"smiles": "CCOc1ccc(N/C=C/C(=O)c2cc(OC)c(OC)c(OC)c2)cc1", "solubility kinetic": "< 0.8"}
{"smiles": "N#CC1(NC(=O)COC(=O)/C=C/c2ccc3ccccc3n2)CCCCC1", "solubility kinetic": 3}
{"smiles": "CCOc1ccc(NC(=S)NCCCN2CCOCC2)cc1", "solubility kinetic": "> 48.5"}
{"smiles": "COc1cc(OC)nc(Oc2cccc(Cl)c2C)n1", "solubility kinetic": 1.5}
{"smiles": "S=C(NCCN1CCOCC1)NC1CCCCC1", "solubility kinetic": 38.5}
{"smiles": "CCCCN1C(=O)N(C)C2NC(=S)NC21", "note": "(centres undefined)", "solubility kinetic": "> 34.2"}
{"smiles": "O=C(NC1CCSc2ccccc21)c1ccc(C(F)(F)F)cc1", "note": "(centres undefined)", "solubility kinetic": "< 0.7"}
{"smiles": "O=[N+]([O-])c1ccc(-c2cnc[nH]2)cc1", "solubility kinetic": "> 28.4"}
{"smiles": "N#C/C(=C\\c1ccc(F)c(Br)c1)C(=O)NC1CC1", "solubility kinetic": 6.1}
{"smiles": "CNc1ccc(/C=C2\\CSc3ccccc3C2=O)cc1[N+](=O)[O-]", "solubility kinetic": 3}
{"smiles": "Cc1cc(C)n2nc(C(=O)OCC(=O)N(CC(C)C)C3CCS(=O)(=O)C3)nc2n1", "note": "(centres undefined)", "solubility kinetic": "> 63.5"}
{"smiles": "Cc1ccccc1NC(=O)NCCCCc1ccccc1", "solubility kinetic": 1.5}
{"smiles": "Cc1ccc(C(=O)OCC(=O)NCCc2ccccc2)cc1C", "solubility kinetic": 11.3}
{"smiles": "O=C(Cc1csc(NC(=O)c2ccc(F)cc2)n1)NO", "solubility kinetic": "> 44.3"}
{"smiles": "COc1ccc(CC(=O)NCCN2CCOCC2)cc1", "solubility kinetic": "> 41.8"}
{"smiles": "CCOC(=O)c1cnn(C)c1NC(=O)c1ccc(Cl)cc1Cl", "solubility kinetic": "> 51.3"}
{"smiles": "COC(=O)C(Cc1ccccc1)N1CCS(=O)(=O)CC1", "note": "(centres undefined)", "solubility kinetic": "> 44.6"}
{"smiles": "Cc1ccccc1NC(=O)C(Cc1ccccc1)n1cccc1", "note": "(centres undefined)", "solubility kinetic": 7.4}
{"smiles": "O=C(COc1ncnc2ccccc12)NC1CCCC1", "solubility kinetic": "> 40.7"}
{"smiles": "O=C(CN1CCN(c2ccccc2F)CC1)c1ccc(O)cc1O", "solubility kinetic": 10.7}
{"smiles": "CN1CCC(N(CCc2ccccc2)C(=O)CCC(=O)O)CC1", "solubility kinetic": "> 47.8"}
{"smiles": "CCC(C(=O)NCCc1c[nH]c2ccc(C)cc12)c1ccccc1", "note": "(centres undefined)", "solubility kinetic": 26.4}
{"smiles": "COc1ccc(NC(=O)c2ccccc2NC(=O)c2ccco2)cc1", "solubility kinetic": "< 0.4"}
{"smiles": "C=CCn1c(NCc2ccccc2OC)nc2ccccc21", "solubility kinetic": 30.2}
{"smiles": "COc1ccc2c(C#N)c3ccccn3c2c1", "solubility kinetic": 0.9}
{"smiles": "Cc1ccc(NC(c2ccccc2)c2nc3ccccc3[nH]c2=O)cc1", "note": "(centres undefined)", "solubility kinetic": 0.5}
{"smiles": "CC1(C)OC(=O)C(=NNc2ccc(C(=O)O)cc2)C(=O)O1", "solubility kinetic": "> 43.8"}
{"smiles": "CC(C)Oc1ccc(Cn2c(=O)oc3ccccc32)cc1", "solubility kinetic": 0.7}
{"smiles": "Cn1cnnc1SCC(=O)c1ccc2c(c1)NC(=O)CO2", "solubility kinetic": "> 45.6"}
{"smiles": "O=C(c1ccccc1)N1CCC2(CC1)NCCc1[nH]cnc12", "solubility kinetic": 42.7}
{"smiles": "COc1ccc(Cl)cc1NC(=O)CN1c2ccccc2CC1C", "note": "(centres undefined)", "solubility kinetic": 2.2}
{"smiles": "CN(C)CC#CCn1c2ccccc2c2ccccc21.Cl", "solubility kinetic": "> 44.8"}
{"smiles": "Cn1c(O)c(C=NC2CCN(Cc3ccccc3)CC2)c(=O)[nH]c1=O", "solubility kinetic": "> 51.4"}
{"smiles": "O=C(Cn1cnc2cc([N+](=O)[O-])ccc2c1=O)N1CCN(S(=O)(=O)c2ccccc2)CC1", "solubility kinetic": 11}
{"smiles": "O=C(CCN1C(=O)C2C3CCC(C3)C2C1=O)OCC(=O)c1ccccc1", "note": "(centres undefined)", "solubility kinetic": 52.9}
{"smiles": "CS(=O)(=O)N1CCC(C(=O)NCc2ccccc2)CC1", "solubility kinetic": "> 44.5"}
{"smiles": "COCCN(Cc1ccccc1)C(=O)C1CCN(C(=O)Nc2ccccc2)CC1", "solubility kinetic": "> 59.3"}
{"smiles": "CC1CCCC(NC(=O)COC(=O)COc2ccc(C#N)cc2)C1C", "note": "(centres undefined)", "solubility kinetic": 45.4}
{"smiles": "CN(Cc1ccc(F)cc1)C(=O)CN1C(=O)c2ccccc2S1(=O)=O", "solubility kinetic": 49}
{"smiles": "COc1ccc(C)cc1NC(=O)C1CCN(S(C)(=O)=O)CC1", "solubility kinetic": "> 49"}
{"smiles": "CCc1ccccc1N1C(=O)CC(Sc2nccc(C)n2)C1=O", "note": "(centres undefined)", "solubility kinetic": 47.3}
{"smiles": "Cc1ccc(S(=O)(=O)CCC(=O)Nc2cccc(Cl)c2)cc1", "solubility kinetic": 23.9}
{"smiles": "O=C(/C=C/c1ccc(Cl)cc1)Nc1ccc(Br)cn1", "solubility kinetic": "< 0.4"}
{"smiles": "COc1cc(C(C)=O)ccc1OCC(=O)NCC(c1ccc(F)cc1)N1CCOCC1", "note": "(centres undefined)", "solubility kinetic": "> 64.6"}
{"smiles": "Cc1c(-c2ccccc2)cnc2c(C)cccc12", "solubility kinetic": "< 0.5"}
{"smiles": "S=C(NCC(c1ccco1)N1CCCC1)Nc1ccccc1", "note": "(centres undefined)", "solubility kinetic": "> 47.3"}
{"smiles": "CN1CCCN(C(=O)CNC(=O)c2ccccc2Br)CC1", "solubility kinetic": "> 53.1"}
{"smiles": "CC(C)c1ccc(NC(=O)C2CC3CCC2C3)cc1", "note": "(centres undefined)", "solubility kinetic": 2.1}
{"smiles": "O=C(Nc1cc(S(=O)(=O)N2CCOCC2)ccc1N1CCOCC1)c1c(F)cccc1Cl", "solubility kinetic": 2.2}
{"smiles": "COCCNC(=O)[C@@H]1CSC2c3ccccc3C(=O)N21", "note": "(some centres undefined)", "solubility kinetic": "> 43.9"}
{"smiles": "CCCc1cc(C(=O)Nc2ccc(OC)cc2[N+](=O)[O-])cs1", "solubility kinetic": "< 0.3"}
{"smiles": "Cn1c(O)c(C=Nc2cccc(C(F)(F)F)c2)c(=O)n(C)c1=O", "solubility kinetic": 10.6}
{"smiles": "COc1ccccc1-c1nnc(SCC(=O)NC2CCCCC2)n1N", "solubility kinetic": "> 54.2"}
{"smiles": "Cc1ccc2nc(C)c(C(=O)O)cc2c1", "solubility kinetic": "> 30.2"}
{"smiles": "CCc1nc2ccc(C(=O)N3CCN(CC)CC3)cc2nc1CC", "solubility kinetic": 48.6}
{"smiles": "Cc1cccn2cc(-c3cccc(NC(=O)c4cccs4)c3)nc12", "solubility kinetic": 5.5}
{"smiles": "COc1ccccc1CNC(=O)CC(C)c1ccccc1", "note": "(centres undefined)", "solubility kinetic": 39.8}
